This is an account of results in US20100285611A1, “PHOTOBLEACHING RESISTANT PH SENSITIVE DYE NANOREACTORS WITH DUAL WAVELENGTH EMISSION” (priority 2009, published 2010).

Broadly, the pKa is the negative logarithm of the acid dissociation constant.

For data set [1] the following is noted: at room temperature; cited from earlier work.
Data set [2] can be described thus: Photobleaching under 300 W Xenon lamp. The format is physicochemical. To be noted: after 100 minutes; 300 W Xenon lamp 15 cm away; DI water pH 9; 30° C.; 640 nm. Here is the method:
cSNARF-1 in DI water at pH 9 and the nanoreactors in the same solvent was placed into covered 1 cm-path length quartz cuvettes and kept at 30° C. using a circulating water bath while being continuously exposed to the emission of a 300 W Xenon lamp placed 15 cm away. […] The fluorescence intensity at 640 nm was recorded at 5 or 10 minute intervals.

Data set [3] in a line: pH dependent fluorescence emission spectra of cSNARF-1 (modified Henderson-Hasselbalch analysis). The format is physicochemical. Here is the method: Absorption spectra were obtained using a UV Mini 1240 spectrophotometer (Shimadzu Scientific Instruments, Columbia, Md.) in a 1-cm path length quartz cuvette. The total concentration of encapsulated cSNARF-1 in the suspensions was determined at pH 7 using the extinction coefficient of 27,000 L-mol-1-cm-1 at the absorbance maximum of 548 nm. Fluorescence spectra were obtained using a Cary Eclipse fluorescence spectrophotometer (Varian, Walnut Creek, Calif.) with excitation wavelength of 514 nm and collecting emissions over the range of 550 nm to 750 nm at room temperature. […] The pH was adjusted using 0.1 N HCl or NaOH, starting from pH 7 to either the higher or lower limit of pH and back. All spectra were corrected for dilution.
A more quantitative analyses of these changes in fluorescence intensity may be carried out using the modified Henderson-Hasselbalch equation. For a dye with dual wavelength emissions, the ratio of fluorescence intensity over a given pH range elucidates the dye's pKa as:
where Ri is the fluorescence intensity ratio of the two wavelengths (582 nm and 635 nm) at pHi, Rmin and Rmax are the minimum and maximum limiting values of Ri, respectively. The value of I(A)/I(B) is obtained from the emission intensities at 635 nm for the limiting acidic, I(A), and basic, I(B), pH regions. In practice, to elucidate the pKa of each sample, first the pH1/2 value, at which (Ri−Rmin)=(Rmax−Ri) or R1/2=(½) (Rmax+Rmin) was determined to make the second term of the right hand side of equation equal to zero. The value of pH1/2 was then subtracted by log(I(A)/I(B)) to estimate the pKa value.
To estimate the pH1/2 and I(A)/I(B) from the experiment, the fluorescence intensity changes at 635 nm and 582 nm, and their ratios were plotted against the pH values as shown in FIG. 4B. For elucidation of both pH1/2 and I(A)/I(B), it is important to note that well defined limiting intensities at both extreme ends of acidic and basic pHs must be available. Furthermore, the spectral changes shown in each of FIG. 4A should have a well defined isoemissive point to assure that the integrity of spectral chromophores is maintained throughout the entire pH range. Once pH1/2, Rmin, Rmax, and I(A)/I(B) are determined, the value for “c” may be estimated from the least squares fit of the equation to the experimental results shown as filled circles in FIG. 4B.

The nature of data set [4]: Stopped flow kinetics of fluorescence response to pH change. The format is physicochemical. The protocol:
The time dependent response of cSNARF-1 solution and nanoreactors to the pH change was measured at 20° C. using an RX2000 Stopped-Flow Mixing Accessory (Applied Photophysics Limited, Leatherhead, UK) attached to the Cary Eclipse fluorescence spectrophotometer. The mixing time of this system is reported to be 8 msec, and the response time of Eclipse is 1 msec. To estimate the response time of the nanoreactors, they were first adjusted to pH 10 then mixed with a 50 mM phosphate buffer solution at pH 2. By exciting cSNARF-1 at 514 nm during this process, the pH-responsive fluorescence change at 582 nm was recorded.

Setting [5] is: solvent Water, excitation 514 nm.

Where two headings read alike, the source gives them in different places.

Regarding “5-(and-6)-Carboxy-seminaphthorhodafluor-1 [cSNARF-1]”, the pKa in data set [1] is given as 7.5; in data set [3] (solvent 1.5% IgG sln), 7.72; in data set [3] (solvent Water), 7.46. Also, in data set [2], the “loss of fluorescence intensity” value was 30%. Moreover, the Acidic peak in data set [3] (solvent 1.5% IgG sln) stood at 584 nm; in data set [3] (setting [5]) it was 581 nm. Further, the Basic peak in data set [3] (solvent 1.5% IgG sln) and in data set [3] (setting [5]) was 633 nm in each case. In addition, the c in data set [3] (solvent 1.5% IgG sln) is reported as −0.78; in data set [3] (solvent Water, least squares fit of Equation 1), −1.17. In addition, the “log{I[A]/I[B]}” value in data set [3] (solvent 1.5% IgG sln) was −0.47; in data set [3] (solvent Water, emission intensities at 635 nm, limiting acidic and basic pH), −0.31. The “pH 1/2” value in data set [3] (solvent 1.5% IgG sln) is 7.25; in data set [3] (solvent Water, excitation 514 nm, room temperature), 7.15. The “time for change in fluorescence intensity (67%)” value in data set [4] (pH change from pH 10 to 5, average of three traces (FIG. 7 legend)) is 175 ms. Further, the “time for 65% change in fluorescence intensity (t65%)” value in data set [4] (response to pH change, average of three traces, 20° C., excitation 514 nm, emission 582 nm) was determined as 175 ms.
